Where “and” joins values, the source holds several entries; their conditions need not be identical. Equal values may be shown once.
What was measured:
KRAS 35G>A mutant G12D = assay: Indel frequencies at the endogenous target sequences (T7E1 / deep sequencing) after ADGN/Cas9 mRNA/gRNA transfection; type: cell-based, human; conditions: for indel frequencies: deep sequencing, 72 hours after transfection, Cas9 mRNA 0.1 μg, gRNA 0.2 μg
Procedure: Complex formation with mRNA:gRNA: ADGN peptide/mRNA/gRNA particles were prepared at a 20:1:1 molar ratio. ADGN/Cas9mRNA/sgRNA complexes were prepared at a 20/1/1 molar ratio with 0.5 μg mRNA: 1.5 μg sgRNA and 5% Glucose or DMEM (example for 96 well plates). […] Premixed Cas9 mRNA/gRNA were prepared in sterile water at room temperature in a glass vial (1-4 ml). ADGN-peptide solution was added dropwise (1 drop/sec) under magnetic agitation at 400 rpm to obtain a 1:2 ratio, and incubated for 30 min at room temperature or 37° C. Just before transfection, 150 μl Glucose or DMEM was added and the solution was mixed under magnetic agitation at 400 rpm for 1 minute. Then the solution was incubated for 5 min at 37° C. Then the complexes was ready for cell transfection or IV administration. Prior to IV administration, complexes were diluted in sucrose 5% solution.
(§1) Transfection protocol. The following protocols are reported for 24/48/96 well plate format transfection. Cells should be trypsinized and seeded a day prior transfection Cells were cultured in Dulbecco's Modified Eagle's Medium (DMEM), supplemented with 2 mM glutamine, 1% antibiotics (streptomycin 10,000 μg/mL, penicillin, 10,000 IU/mL) and 10% (w/v) foetal calf serum (FCS), at 37° C. in a humidified atmosphere containing 5% CO2. 96 well plates seeded with 50,000 cells, the day prior transfection, grown to 60-80% confluence and set up to be at around 70% confluence at the day of transfection. Before transfection, cells are washed twice with DMEM (without FBS and pen/strep) (100 μl/well). Cells were then overlaid with 25 μl of complex solution, mixed gently and incubated for 10 min at 37° C.+5% CO2. 50 μl of fresh DMEM (without FBS and Antibiotics) was added and cells were incubated for 2 h at 37° C.+5% CO2 (time of exposure can be adjusted based on sensitivity of the cells). 250 μL of DMEM (containing 10% FCS and 1% antibiotics) were then added without removing the overlay of ADGN peptide/mRNA complexes. Cells were returned to the incubator (37° C., 5% CO2) and analyzed 48 hours to 72 hours post transfection.
(§2) Nine different gRNAs targeting KRAS 35G>A mutant G12D (gRNA35A1, gRNA35A2, gRNA35A3, gRNA35A4, gRNA35A5, gRNA35A6; gRNA35A7, gRNA35A8, gRNA35A9) were evaluated on LS513, Panc1, PK-45H, and PK1 cancer cells harboring G12D KRAS mutation. Cas9 mRNA (0.1 μg) and gRNA (0.2 μg) were associated with ADGN-peptide at molar ratio 20/1 (peptide/nucleic acid). LS513, Panc1, PK-45H, PK1, HS-68 and HT-29 cells were cultured in 48 well plate format and treated with free mRNACas9-gRNA, or ADGN/mRNACas9:gRNA complex. Indel frequencies at the endogenous target sequences was evaluated 72 hours after transfection by either T7E1 method or deep sequencing. Cell proliferation was analyzed over a period of 5 days using CellTiter Glow kits on GlowMax (Promega).
(§3) In order to confirm the specificity of sgRNAs targeting G12V, G12C or G12D KRAS mutation, gRNA35T3 targeting G12V, gRNA34T6 targeting G12C, and gRNA35A5 targeting G12D were evaluated on a large panel of cancer cells harboring different KRAS mutations including SW403, SW480, PANC1, PK-45H, PK-1, MIA-PACA, H23, H358, HT-29, HS-68 and LS513. Cas9 mRNA (0.2 μg) and gRNA (0.4 μg) were associated with ADGN peptide at molar ratio 20/1 (peptide/nucleic acid). Cells were cultured in 48 well plate format and treated with free mRNACas9-gRNA, or ADGN/mRNACas9:gRNA complex. Indel frequencies at the endogenous target sequences was evaluated 72 hours after transfection by either T7E1 method and cell proliferation was analyzed over a period of 5 days using CellTiter Glow kits on GlowMax (Promega).

[1] = test system: PANC1, PK1, LS513 and PK-45H cells; assay: Cell proliferation over 5 days (CellTiter Glow); type: cell-based, human
Procedure: as §1, §2

[2] = test system: G12V, G12D, G12C KRAS mutant cells and WT KRAS cells; assay: Specificity of lead sgRNAs on a large panel of cancer cells harboring different KRAS mutations (indel, proliferation); type: cell-based, human; conditions: Cas9 mRNA 0.2 μg, gRNA 0.4 μg
Procedure: as §3

pAKT = assay: Downstream signaling proteins quantified by ELISA on tumors; type: in vivo, mice; conditions: PANC1 tumors
Procedure: (§4) The specificity of gRNA35A5 G12D and gRNA35T3 G12V for their targets in PANC-1 and SW403 tumors cells, have been analyzed. Female nude mice 6-weeks of age were injected with either Human pancreatic carcinoma cell (Panc1-Luc) containing the 35G>A mutation or Human colorectal cancer cells (SW403) containing 35G>T KRAS mutation (20×10^6 cells in 200 μl PBS). A period of 2 weeks was allowed for tumor development before the beginning of the experiments.
(§5) Animal were injected on day 1 and day 7. Mice received IV injection of 100 μl ADGN/mRNA complex in 5% glucose. At Day 50, animals were sacrificed and tissues/tumors were harvested. At Day 50 post treatment, level of expression of housekeeping genes; glyceraldehyde-3-phosphate dehydrogenase (GAPDH), HPRT-1 and mitochondrial ATP synthase 6 (mATPsy6) was evaluated by PCR in the tumor, liver, spleen and lung.
(§6) We analyzed the level of KRAS G12D or KRAS G12V gene editing by deep sequencing in PANC1 (FIG. 14A) and SW403 (FIG. 14B) tumors, respectively. […] The level of downstream signaling proteins (pAKT and pERK) were quantified by ELISA on PANC1 and SW403 tumors. […] Given that targeting KRAS using Cas9/sgRNA can induce various secondary mutations at or near the target sites, deep sequencing shown similar level of secondary oncogenic mutations (G12D, G12V, G12C, G13D, G12R, G12A, and G12S) in KRAS-mutant cancer cells (SW403/PANC-1) or cells containing wild-type KRAS (HT29) either in vitro or in vivo.

pERK = assay: as above; type: in vivo, mice; conditions: PANC1 tumors
Procedure: as §4, §5, §6

**Q.** What does the source list for “AGT TGG AGC TGA TGG CGT (guide AGTTGGAGCTGATGGCGT; chemistry not given here) [gRNA35A5, sgRNA target KRAS G12D mutation (35G>A); PAM AGG]”?
**A.** disruption of G12D mutant KRAS (FIG. 2A) (KRAS 35G>A mutant G12D; G12D cancer cells vs wild type KRAS cells (HT29 or HS-68)): induced efficient disruption of G12D mutant KRAS; indel frequency (KRAS 35G>A mutant G12D; KRAS G12D mutated cancer cells): > 70%; indel frequencies (KRAS 35G>A mutant G12D; LS513 cells): 35 ± 4%; indel frequencies (KRAS 35G>A mutant G12D; PANC1 cells): 67% and 67 ± 5%; indel frequency (KRAS 35G>A mutant G12D; PANC-1, PK-1, and PK-45H cells, T7E1, 72 hours, Cas9 mRNA 0.2 μg, gRNA 0.4 μg): > 75%; indel frequencies (KRAS 35G>A mutant G12D; PK1 cells): 78% and 78 ± 8%; indel frequencies (KRAS 35G>A mutant G12D; PK-45H cells): 75% and 75 ± 7%; fold more efficient than gRNA35A2 (cell proliferation) [1]: 2 fold; fold more efficient than gRNA35A6 (cell proliferation) [1]: 3 fold; inhibition of proliferation or survival (FIG. 2B) ([1]; PANC1, PK1, LS513, PK-45H vs HT29 or HS-68 cells harboring KRAS WT): specifically inhibit proliferation or survival of PANC1, PK1, LS513 and PK-45H cells; cell proliferation blocked ([1]; PANC1, PK1, LS513 and PK-45H cells, 5 days): 80%; effect on non-targeted KRAS mutant cells and WT KRAS cells (FIGS. 4A-4B) [2]: does not alter G12V and G12C KRAS mutant cells or WT KRAS cells; level of p-AKT (pAKT): significantly reduced; level of p-ERK (pERK): significantly reduced
